Assay results as given in ChEMBL document CHEMBL1687875, “Flavonoids from eight tropical plant species that inhibit the multidrug resistance transporter ABCG2” (J Nat Prod, 2011).
pIC50: −log10 of the molar value.

These molecules were tested against T1, Broad substrate specificity ATP-binding cassette transporter ABCG2 (Homo sapiens, UniProt Q9UNQ0) (assay: Inhibition of ABCG2 expressed in human NCI-H460 cells assessed as increase in PhA accumulation after 2 to 20 hrs relative to fumitremorgin C).
T1 sequence (Q9UNQ0 whole entry): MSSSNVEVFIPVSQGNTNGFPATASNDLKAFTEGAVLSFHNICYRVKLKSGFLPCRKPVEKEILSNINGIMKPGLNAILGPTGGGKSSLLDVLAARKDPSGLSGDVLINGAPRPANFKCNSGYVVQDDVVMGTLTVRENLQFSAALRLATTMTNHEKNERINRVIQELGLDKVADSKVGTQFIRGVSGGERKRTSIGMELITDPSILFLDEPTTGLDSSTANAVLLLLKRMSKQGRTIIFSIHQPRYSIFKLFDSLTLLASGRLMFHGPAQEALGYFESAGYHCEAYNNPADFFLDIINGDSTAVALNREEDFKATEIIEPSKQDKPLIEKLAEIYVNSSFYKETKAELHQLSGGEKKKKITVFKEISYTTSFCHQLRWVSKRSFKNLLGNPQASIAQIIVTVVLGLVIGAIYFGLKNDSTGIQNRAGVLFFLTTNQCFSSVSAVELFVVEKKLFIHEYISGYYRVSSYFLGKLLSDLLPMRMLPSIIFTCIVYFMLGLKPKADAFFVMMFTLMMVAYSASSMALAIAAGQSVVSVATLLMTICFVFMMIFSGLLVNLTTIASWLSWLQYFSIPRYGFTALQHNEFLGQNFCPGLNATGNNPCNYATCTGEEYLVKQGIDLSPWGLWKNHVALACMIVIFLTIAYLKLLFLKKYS
In the case of `COc1cc(O)c2c(=O)c(OC)c(-c3ccc(OC)c(O)c3)oc2c1` [AYANIN], the pIC50 was 5.24. Molecule `COc1cc(O)c(CC=C(C)C)c(-c2oc3cc(O)cc(O)c3c(=O)c2OC)c1` has a pIC50 of 5.08. `COc1ccc2c3c([nH]c2c1)[C@H](C=C(C)C)N1C(=O)[C@@H]2CCCN2C(=O)[C@@H]1C3` [FUMITREMORGIN] showed a pIC50 of 6.10. Molecule `CC(C)=CCc1c(O)cc(O)c2c1O[C@H](c1ccc(O)cc1)CC2=O` has a pIC50 of 5.51. With `CC(C)=CCC/C(C)=C/Cc1c(O)cc2oc(-c3ccc(O)cc3)c(O)c(=O)c2c1O` [MACARANGIN] the pIC50 was 5.24. `COc1ccc([C@@H]2CC(=O)c3c(O)cc(O)c(CC=C(C)C)c3O2)cc1` gave a pIC50 of 4.65. With `CC(C)=CCC/C(C)=C/Cc1c(O)cc(O)c2c1O[C@H](c1ccc(O)cc1)CC2=O` [SOPHORAFLAVANONE A] the pIC50 was 4.91. `CC(C)=CCc1c(O)c(CC=C(C)C)c2c(c1O)C(=O)C[C@@H](c1cc(O)cc(O)c1)O2` showed a pIC50 of 5.39. `COc1cc(O)c2c(=O)c(OC)c(-c3ccc(O)c(OC)c3)oc2c1` [PACHYPODOL] showed a pIC50 of 4.76. Molecule `C/C(=C/Cc1c(-c2cc(O)c(O)cc2O)oc2c3c(cc(O)c2c1=O)OC(C)(C)C=C3)CO` has a pIC50 of 5.19. In the case of `O=c1cc(-c2ccc(O)c(O)c2)oc2cc(O)cc(O)c12` [LUTEOLIN], the pIC50 was 5.05. For `CC(C)=CCC/C(C)=C/Cc1c(O)cc(O)c2c1O[C@H](c1cc(O)cc(O)c1)CC2=O`, the pIC50 was 4.81. In the case of `COc1ccc([C@@H]2CC(=O)c3c(O)cc(O)c(CC=C(C)C)c3O2)cc1O`, the pIC50 was 5.18.
